From ChEMBL document CHEMBL1201862, “PubChem BioAssay data set” (2004)
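A five-concentration, 48-hour dose response in 96-well plates underlies each endpoint, interpolated linearly between surrounding concentrations. GI50 marks 50% less growth.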 Activity calls are given as the source filed them. Cut-off read from the data, not from the text of the source: active = GI50 up to about 1.1 µM and inactive = higher.

Legend:
Assay in all cases: inhibition of tumour cell growth, NCI panel, 48 h
SF-268 = system: SF-268
IGROV-1 = system: IGROV-1
KM12 = system: KM12
SK-MEL-2 = system: SK-MEL-2
U-251 = system: U-251
EKVX = system: EKVX
UO-31 = system: UO-31
OVCAR-3 = system: OVCAR-3
OVCAR-8 = system: OVCAR-8
HOP-92 = system: HOP-92
SN12C = system: SN12C
SNB-75 = system: SNB-75
RPMI-8226 = system: RPMI-8226
OVCAR-4 = system: OVCAR-4
UACC-62 = system: UACC-62
HL-60 = system: HL-60
SNB-19 = system: SNB-19
NCI-H522 = system: NCI-H522
HCC 2998 = system: HCC 2998
HCT-15 = system: HCT-15

| Structure (SMILES) | GI50 (SF-268) | GI50 (IGROV-1) | GI50 (KM12) | GI50 (SK-MEL-2) | GI50 (U-251) | GI50 (EKVX) | GI50 (UO-31) | GI50 (OVCAR-3) | GI50 (OVCAR-8) | GI50 (HOP-92) | GI50 (SN12C) | GI50 (SNB-75) | GI50 (RPMI-8226) | GI50 (OVCAR-4) | GI50 (UACC-62) | GI50 (HL-60) | GI50 (SNB-19) | GI50 (NCI-H522) | GI50 (HCC 2998) | GI50 (HCT-15) [µM] |
| --- | --- | --- | --- | --- | --- | --- | --- | --- | --- | --- | --- | --- | --- | --- | --- | --- | --- | --- | --- | --- |
| O=C(NN1C(=O)C(Cl)C1c1ccc([N+](=O)[O-])cc1)c1ccccc1O (configuration not stated) | > 100 µM (inactive) | > 100 µM (inactive) | > 100 µM (inactive) | > 100 µM (inactive) | > 100 µM (inactive) | > 100 µM (inactive) | > 100 µM (inactive) | > 100 µM (inactive) | > 100 µM (inactive) | > 100 µM (inactive) | > 100 µM (inactive) | 51.8 µM (inactive) | > 100 µM (inactive) | > 100 µM (inactive) | > 100 µM (inactive) | > 100 µM (inactive) | 68.1 µM (inactive) | > 100 µM (inactive) | – | – |
| CC(C)N1CSC(=S)N(Cc2ccccc2)C1 | 4.38 µM (inactive) | > 10 µM (inactive) | 3.36 µM (inactive) | – | > 10 µM (inactive) | > 10 µM (inactive) | – | 3.87 µM (inactive) | 4.75 µM (inactive) | 2.84 µM (inactive) | 4.49 µM (inactive) | 2.8 µM (inactive) | 2.58 µM (inactive) | > 10 µM (inactive) | 4.06 µM (inactive) | 0.197 µM (active) | 0.752 µM (active) | – | > 10 µM (inactive) | 3.4 |
| COc1cc2cc3c4cc(OC)c(OC)cc4cc[n+]3cc2cc1OC | 0.435 µM (active) | > 100 µM (inactive) | > 100 µM (inactive) | > 100 µM (inactive) | 9.46 µM (inactive) | > 100 µM (inactive) | > 100 µM (inactive) | > 45.5 µM (inactive) | > 100 µM (inactive) | > 100 µM (inactive) | 12.4 µM (inactive) | > 89.3 µM (inactive) | > 100 µM (inactive) | > 100 µM (inactive) | > 100 µM (inactive) | – | 15.2 µM (inactive) | 16.4 µM (inactive) | > 30.6 µM (inactive) | > 100 |
| S=CN1CCCCC1 | > 100 µM (inactive) | > 100 µM (inactive) | > 100 µM (inactive) | > 100 µM (inactive) | > 100 µM (inactive) | > 100 µM (inactive) | > 100 µM (inactive) | > 100 µM (inactive) | > 100 µM (inactive) | – | > 100 µM (inactive) | > 100 µM (inactive) | > 100 µM (inactive) | – | > 100 µM (inactive) | > 100 µM (inactive) | > 100 µM (inactive) | > 100 µM (inactive) | > 100 µM (inactive) | > 100 |
| N#C/C(=C\NC(=S)Nc1ccc(S(=O)(=O)Nc2ccccn2)cc1)C(N)=O | > 100 µM (inactive) | > 100 µM (inactive) | > 100 µM (inactive) | > 100 µM (inactive) | > 100 µM (inactive) | > 100 µM (inactive) | > 100 µM (inactive) | > 100 µM (inactive) | > 100 µM (inactive) | > 100 µM (inactive) | > 100 µM (inactive) | 61.8 µM (inactive) | > 100 µM (inactive) | > 100 µM (inactive) | > 100 µM (inactive) | – | > 100 µM (inactive) | > 100 µM (inactive) | – | > 100 |
| CCOC(=O)C1=C(C)N(c2ccc(OC)cc2)C2(O)C=CC(O)=C3C(=O)c4ccccc4C(=O)C312 (configuration not stated) | 2.13 µM (inactive) | 3.56 µM (inactive) | 12.9 µM (inactive) | 16.3 µM (inactive) | 8.49 µM (inactive) | 7.43 µM (inactive) | 13.9 µM (inactive) | 3.06 µM (inactive) | 14.9 µM (inactive) | 2.25 µM (inactive) | 14.8 µM (inactive) | – | 2.44 µM (inactive) | 2.99 µM (inactive) | 12.5 µM (inactive) | 5.93 µM (inactive) | 13 µM (inactive) | 2.57 µM (inactive) | – | 6.71 |
| CCOC(=O)c1cn(CC)c(=O)n2c1nc1ccccc12 | – | 33.3 µM (inactive) | 59.6 µM (inactive) | > 100 µM (inactive) | > 100 µM (inactive) | > 100 µM (inactive) | 3.48 µM (inactive) | 83.8 µM (inactive) | 38.3 µM (inactive) | 30.1 µM (inactive) | > 100 µM (inactive) | > 100 µM (inactive) | 24.4 µM (inactive) | 35.3 µM (inactive) | 57.5 µM (inactive) | – | > 100 µM (inactive) | – | 96.8 µM (inactive) | 40.2 |
| CCOC(=O)C1=C(C)N(NC(N)=O)C2(O)CCCC(=O)C12C (configuration not stated) | – | > 100 µM (inactive) | > 100 µM (inactive) | > 100 µM (inactive) | > 100 µM (inactive) | – | – | > 100 µM (inactive) | > 100 µM (inactive) | > 100 µM (inactive) | > 100 µM (inactive) | > 100 µM (inactive) | > 100 µM (inactive) | > 100 µM (inactive) | > 100 µM (inactive) | – | > 100 µM (inactive) | > 100 µM (inactive) | > 100 µM (inactive) | > 100 |
| CC1(c2sccc2Cl)CC(c2sccc2Cl)=C(C#N)C(=C(C#N)C#N)N1 (configuration not stated) | 20.2 µM (inactive) | 23 µM (inactive) | 20.9 µM (inactive) | 20.3 µM (inactive) | 18.5 µM (inactive) | 18.7 µM (inactive) | – | 14.9 µM (inactive) | 20.8 µM (inactive) | – | 20.2 µM (inactive) | – | 36.1 µM (inactive) | 25.1 µM (inactive) | 18.3 µM (inactive) | 34.2 µM (inactive) | 18.3 µM (inactive) | 19.1 µM (inactive) | 14.5 µM (inactive) | 17.9 |
| COc1cccc2[s+]snc12 | 34.1 µM (inactive) | > 100 µM (inactive) | 59.6 µM (inactive) | 27.2 µM (inactive) | > 10 µM (inactive) | > 100 µM (inactive) | 25.1 µM (inactive) | > 100 µM (inactive) | 26.9 µM (inactive) | – | 35.5 µM (inactive) | 69.3 µM (inactive) | – | 43.9 µM (inactive) | 25.1 µM (inactive) | 23.9 µM (inactive) | 50.6 µM (inactive) | > 10 µM (inactive) | > 100 µM (inactive) | 42.4 |
| CSc1nc(SC)c2cnn(CC3CO3)c2n1 (configuration not stated) | 9.73 µM (inactive) | 19.4 µM (inactive) | 20.3 µM (inactive) | 16.7 µM (inactive) | 19.1 µM (inactive) | 29.3 µM (inactive) | 19.5 µM (inactive) | 25.1 µM (inactive) | 9.18 µM (inactive) | – | 20.2 µM (inactive) | 17.3 µM (inactive) | 35.1 µM (inactive) | 20.7 µM (inactive) | 19.2 µM (inactive) | 17.5 µM (inactive) | 31.2 µM (inactive) | 26.2 µM (inactive) | 17.4 µM (inactive) | 25.2 |
| Cc1[nH]n(C2=NCCN2)c(=O)c1Cc1ccccc1 | > 100 µM (inactive) | > 100 µM (inactive) | > 100 µM (inactive) | > 100 µM (inactive) | > 100 µM (inactive) | > 100 µM (inactive) | > 100 µM (inactive) | > 100 µM (inactive) | > 100 µM (inactive) | > 100 µM (inactive) | – | – | > 100 µM (inactive) | > 100 µM (inactive) | > 100 µM (inactive) | > 100 µM (inactive) | > 100 µM (inactive) | > 100 µM (inactive) | – | > 100 |
